From patent US12077503B2, “Substituted cyclic amides and their use as herbicides” (FMC CORPORATION, priority 2015, dated 2024)

Assays:
Type in all cases: in vivo
[1] = system: barnyardgrass (Echinochloa crus-galli); assay: Test G Pre-Emergence Protocol; conditions: Echinochloa crus-galli, pre-emergence, 312 h, evaluated after 13 days
How it was run: (§1)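 Pots of seeds in standard soil were grown for one day in a glasshouse (24/16 °C day/night, 14 h light, 65% humidity), then sprayed with compound in acetone/water 50:50 with 0.5% Tween 20 at 15.625, 62.5 or 250 g/ha. Damage was scored after 13 days on a 0 (none) to 100 (total) scale.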

[2] = system: corn (Zea mays); assay: Test G Pre-Emergence Protocol; conditions: Zea mays, pre-emergence, 312 h, evaluated after 13 days
How it was run: as §1

[3] = system: giant foxtail (Setaria faberi); assay: Test G Pre-Emergence Protocol; conditions: Setaria faberi, pre-emergence, 312 h, evaluated after 13 days
How it was run: as §1

[4] = system: ivy-leaved morning glory (Ipomoea hederacea); assay: Test G Pre-Emergence Protocol; conditions: Ipomoea, pre-emergence, 312 h, evaluated after 13 days
How it was run: as §1

[5] = system: redroot pigweed (Amaranthus retroflexus); assay: Test G Pre-Emergence Protocol; conditions: Amaranthus retroflexus, pre-emergence, 312 h, evaluated after 13 days
How it was run: as §1

[6] = system: velvetleaf (Abutilon theophrasti); assay: Test G Pre-Emergence Protocol; conditions: Abutilon theophrasti, pre-emergence, 312 h, evaluated after 13 days
How it was run: as §1

[7] = system: barnyardgrass (Echinochloa crus-galli); assay: Test G Post-Emergence Protocol; conditions: Echinochloa crus-galli, post-emergence, 312 h
How it was run: (§2)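 Post-emergence herbicidal damage, scored visually 0–100 at 13 days. Application at 15.625, 62.5 or 250 g/ha onto 8-day-old plants grown under glasshouse control.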

[8] = system: corn (Zea mays); assay: Test G Post-Emergence Protocol; conditions: Zea mays, post-emergence, 312 h
How it was run: as §2

[9] = system: giant foxtail (Setaria faberi); assay: Test G Post-Emergence Protocol; conditions: Setaria faberi, post-emergence, 312 h
How it was run: as §2

[10] = system: ivy-leaved morning glory (Ipomoea hederacea); assay: Test G Post-Emergence Protocol; conditions: Ipomoea, post-emergence, 312 h
How it was run: as §2

[11] = system: redroot pigweed (Amaranthus retroflexus); assay: Test G Post-Emergence Protocol; conditions: Amaranthus retroflexus, post-emergence, 312 h
How it was run: as §2

[12] = system: velvetleaf (Abutilon theophrasti); assay: Test G Post-Emergence Protocol; conditions: Abutilon theophrasti, post-emergence, 312 h
How it was run: as §2

CN1C[C@@H](c2ccc(C(F)(F)F)cc2)[C@H](C(=O)Nc2cc(O)nc(C(F)(F)F)n2)C1=O (racemic) [Compound 1614]
0%: pest or weed control at 15.625 g/ha ([1]; 15.625 g ai/ha, read-out: Barnyard grass damage rating (100=total damage to plant; 0=no damage to plant)) | pest or weed control at 62.5 g/ha ([1]; 62.5 g ai/ha, 100=total damage to plant, 0=no damage to plant, read-out: plant damage rating, Barnyardgrass) | pest or weed control at 250 g/ha ([1]; 250 g ai/ha, read-out: Barnyardgrass damage rating (100=total damage to plant; 0=no damage to plant)) | plant injury at 15.625 g/ha ([2]; 15.625 g ai/ha, read-out: Corn damage rating (100=total damage to plant; 0=no damage to plant)) | plant injury at 62.5 g/ha ([2]; 62.5 g ai/ha, 100=total damage to plant, 0=no damage to plant, read-out: plant damage rating, Corn) | plant injury at 250 g/ha ([2]; 250 g ai/ha, read-out: Corn damage rating (100=total damage to plant; 0=no damage to plant)) | pest or weed control at 15.625 g/ha ([3]; 15.625 g ai/ha, read-out: Foxtail, Giant damage rating (100=total damage to plant; 0=no damage to plant)) | pest or weed control at 62.5 g/ha ([3]; 62.5 g ai/ha, 100=total damage to plant, 0=no damage to plant, read-out: plant damage rating, Foxtail, Giant) | pest or weed control at 250 g/ha ([3]; 250 g ai/ha, read-out: Foxtail, Giant damage rating (100=total damage to plant; 0=no damage to plant)) | pest or weed control at 15.625 g/ha ([4]; 15.625 g ai/ha, read-out: Morning-glory, Ivy-leaved damage rating (100=total damage to plant; 0=no damage to plant)) | pest or weed control at 62.5 g/ha ([4]; 62.5 g ai/ha, 100=total damage to plant, 0=no damage to plant, read-out: plant damage rating, Morningglory, Ivy-leaved) | pest or weed control at 250 g/ha ([4]; 250 g ai/ha, read-out: Morningglory, Ivy-leaved damage rating (100=total damage to plant; 0=no damage to plant)) | pest or weed control at 15.625 g/ha ([5]; 15.625 g ai/ha, read-out: Pigweed, Redroot damage rating (100=total damage to plant; 0=no damage to plant)) | pest or weed control at 62.5 g/ha ([5]; 62.5 g ai/ha, 100=total damage to plant, 0=no damage to plant, read-out: plant damage rating, Pigweed, Redroot) | pest or weed control at 15.625 g/ha ([6]; 15.625 g ai/ha, read-out: Velvetleaf damage rating (100=total damage to plant; 0=no damage to plant)) | pest or weed control at 62.5 g/ha ([6]; 62.5 g ai/ha, 100=total damage to plant, 0=no damage to plant, read-out: plant damage rating, Velvetleaf) | pest or weed control at 15.625 g/ha ([7]; 15.625 g ai/ha, evaluated after 13 days (100=total damage to plant; 0=no damage to plant), read-out: Barnyardgrass damage rating) | pest or weed control at 62.5 g/ha ([7]; 62.5 g ai/ha, evaluated after 13 days, read-out: Barnyardgrass damage rating (100=total damage to plant; 0=no damage to plant)) | pest or weed control at 250 g/ha ([7]; 250 g ai/ha, evaluated after 13 days, read-out: damage to plant, Barnyardgrass (100=total damage to plant; 0=no damage to plant)) | plant injury at 15.625 g/ha ([8]; 15.625 g ai/ha, evaluated after 13 days (100=total damage to plant; 0=no damage to plant), read-out: Corn damage rating) | plant injury at 62.5 g/ha ([8]; 62.5 g ai/ha, evaluated after 13 days, read-out: Corn damage rating (100=total damage to plant; 0=no damage to plant)) | plant injury at 250 g/ha ([8]; 250 g ai/ha, evaluated after 13 days, read-out: damage to plant, Corn (100=total damage to plant; 0=no damage to plant)) | pest or weed control at 15.625 g/ha ([9]; 15.625 g ai/ha, evaluated after 13 days (100=total damage to plant; 0=no damage to plant), read-out: Foxtail, Giant damage rating) | pest or weed control at 62.5 g/ha ([9]; 62.5 g ai/ha, evaluated after 13 days, read-out: Foxtail, Giant damage rating (100=total damage to plant; 0=no damage to plant)) | pest or weed control at 250 g/ha ([9]; 250 g ai/ha, evaluated after 13 days, read-out: damage to plant, Foxtail, Giant (100=total damage to plant; 0=no damage to plant)) | pest or weed control at 15.625 g/ha ([10]; 15.625 g ai/ha, evaluated after 13 days (100=total damage to plant; 0=no damage to plant), read-out: Morningglory, Ivy-leaved damage rating) | pest or weed control at 62.5 g/ha ([10]; 62.5 g ai/ha, evaluated after 13 days, read-out: Morningglory, Ivy-leaved damage rating (100=total damage to plant; 0=no damage to plant)) | pest or weed control at 250 g/ha ([10]; 250 g ai/ha, evaluated after 13 days, read-out: damage to plant, Morningglory, Ivy-leaved (100=total damage to plant; 0=no damage to plant)) | pest or weed control at 15.625 g/ha ([11]; 15.625 g ai/ha, evaluated after 13 days (100=total damage to plant; 0=no damage to plant), read-out: Pigweed, Redroot damage rating) | pest or weed control at 62.5 g/ha ([11]; 62.5 g ai/ha, evaluated after 13 days, read-out: Pigweed, Redroot damage rating (100=total damage to plant; 0=no damage to plant)) | pest or weed control at 15.625 g/ha ([12]; 15.625 g ai/ha, evaluated after 13 days (100=total damage to plant; 0=no damage to plant), read-out: Velvetleaf damage rating) | pest or weed control at 62.5 g/ha ([12]; 62.5 g ai/ha, evaluated after 13 days, read-out: Velvetleaf damage rating (100=total damage to plant; 0=no damage to plant))
20%: pest or weed control at 250 g/ha ([12]; 250 g ai/ha, evaluated after 13 days, read-out: damage to plant, Velvetleaf (100=total damage to plant; 0=no damage to plant))
80%: pest or weed control at 250 g/ha ([5]; 250 g ai/ha, read-out: Pigweed, Redroot damage rating (100=total damage to plant; 0=no damage to plant)) | pest or weed control at 250 g/ha ([11]; 250 g ai/ha, evaluated after 13 days, read-out: damage to plant, Pigweed, Redroot (100=total damage to plant; 0=no damage to plant))
70%: pest or weed control at 250 g/ha ([6]; 250 g ai/ha, read-out: Velvetleaf damage rating (100=total damage to plant; 0=no damage to plant))
